The test system of this test is mouse immortalized TT-D6 Scx-luciferase (ScxL) cell line; transcriptional activation of Scleraxis (Scx) gene. Description: SCX-LUC in vitro assay (scleraxis promoter luciferase reporter). It is filed as cell-based.
Where [1] appears, read: Mus musculus, 96 h, Examples table, TT-D6 Scx-luciferase cells, 1 ng/ml TGFβ1, four days, read-out: Scx-Luc (EC50 μM).

Where two headings read alike, the source gives them in different places.

As for `Nc1n[nH]c2ccc(-c3ccc(S(=O)(=O)NC4CC(F)(F)C4)cc3Cl)nc12` [Example 4, 4-(3-amino-1H-pyrazolo[4,3-b]pyridin-5-yl)-3-chloro-N-(3,3-difluorocyclobutyl)benzenesulfonamide], the EC50 under setting [1] was 0.444 µM.

`Nc1n[nH]c2ccc(-c3ccc(NS(=O)(=O)c4ccc(C(F)(F)F)cc4)cc3Cl)nc12` [Example 78, N-(4-(3-amino-1H-pyrazolo[4,3-b]pyridin-5-yl)-3-chlorophenyl)-4-(trifluoromethyl)benzenesulfonamide]: the EC50 under setting [1] came to 2.44 µM.

Turning to `Cc1cc(S(=O)(=O)NC2(CO)CCCC2)ccc1-c1ccc2[nH]nc(N)c2n1` [Example 26, 4-(3-amino-1H-pyrazolo[4,3-b]pyridin-5-yl)-N-(1-(hydroxymethyl)cyclopentyl)-3-methylbenzenesulfonamide], the EC50 under setting [1] worked out at 0.811 µM.

For `Nc1n[nH]c2ccc(-c3ccc(S(=O)(=O)NC4CCC(O)(C(F)(F)F)CC4)cc3Cl)nc12` [4-(3-amino-1H-pyrazolo[4,3-b]pyridin-5-yl)-3-chloro-N-((1R,4R)-4-hydroxy-4-(trifluoromethyl)cyclohexyl)benzenesulfonamide], the EC50 (further compounds not numbered as examples, read-out: EC50 in the Scx-Luc assay) is greater than 10 µM.

Take `Nc1n[nH]c2ccc(-c3ccc(S(=O)(=O)N[C@H]4CC[C@@H](O)CC4)cc3Cl)nc12` [Example 48, 4-(3-amino-1H-pyrazolo[4,3-b]pyridin-5-yl)-3-chloro-N-((1s,4s)-4-hydroxycyclohexyl)benzenesulfonamide]: the concentration for a half-maximal effect (EC50) under setting [1] stood at 2.02 µM.

As for `Nc1n[nH]c2ccc(-c3ccc(S(=O)(=O)N[C@H]4CCC[C@@H]4O)cc3Cl)nc12` [Example 94, 4-(3-amino-1H-pyrazolo[4,3-b]pyridin-5-yl)-3-chloro-N-((1S,2S)-2-hydroxycyclopentyl)benzenesulfonamide], the EC50 under setting [1] was determined as 0.026 µM.

With `Nc1n[nH]c2ccc(-c3ccc(S(=O)(=O)NC4CCCC(O)C4)cc3Cl)nc12` (stereo not shown) [Example 44, 4-(3-amino-1H-pyrazolo[4,3-b]pyridin-5-yl)-3-chloro-N-(3-hydroxycyclohexyl)benzenesulfonamide], under setting [1], the half-maximal effective concentration (EC50) turned out to be 4.12 µM.

`COc1ccc(S(=O)(=O)Nc2ccc(-c3ccc4[nH]nc(N)c4n3)c(Cl)c2)cc1OC` [Example 79, N-(4-(3-amino-1H-pyrazolo[4,3-b]pyridin-5-yl)-3-chlorophenyl)-3,4-dimethoxybenzenesulfonamide]: the EC50 under setting [1] worked out at 0.061 µM.

In the case of `NC(=O)[C@H]1C[C@@H](F)CN1S(=O)(=O)c1ccc(-c2ccc3[nH]nc(N)c3n2)c(Cl)c1` [Example 55, (2R,4R)-1-((4-(3-amino-1H-pyrazolo[4,3-b]pyridin-5-yl)-3-chlorophenyl)sulfonyl)-4-fluoropyrrolidine-2-carboxamide], the EC50 under setting [1] turned out to be 6.16 µM.

Regarding `Nc1n[nH]c2ccc(-c3ccc(NS(=O)(=O)c4ccc5c(c4)NCCO5)cc3Cl)nc12` [Example 53, N-(4-(3-amino-1H-pyrazolo[4,3-b]pyridin-5-yl)-3-chlorophenyl)-3,4-dihydro-2H-benzo[b][1,4]oxazine-6-sulfonamide], under setting [1], the EC50 worked out at 2.74 µM.

With `Cc1cc(S(=O)(=O)N[C@@H]2CC[C@H](O)C2)ccc1-c1ccc2[nH]nc(N)c2n1` [Example 19, 4-(3-amino-1H-pyrazolo[4,3-b]pyridin-5-yl)-N-((1R,3S)-3-hydroxycyclopentyl)-3-methylbenzenesulfonamide], the EC50 under setting [1] was 1.7 µM.

Turning to `Cc1cc(S(=O)(=O)N[C@@H]2CCC[C@@H]2O)ccc1-c1ccc2[nH]nc(N)c2n1` [Example 20, 4-(3-amino-1H-pyrazolo[4,3-b]pyridin-5-yl)-N-((1R,2S)-2-hydroxycyclopentyl)-3-methylbenzenesulfonamide], the EC50 under setting [1] came out at 0.797 µM.

Regarding `Cc1cc(S(=O)(=O)N[C@H]2CC[C@H](O)CC2)ccc1-c1ccc2[nH]nc(N)c2n1` [Example 54, 4-(3-amino-1H-pyrazolo[4,3-b]pyridin-5-yl)-N-((1r,4r)-4-hydroxycyclohexyl)-3-methylbenzenesulfonamide], under setting [1], the EC50 is 1.13 µM.

Take `Cc1cc(S(=O)(=O)N2CCC(CCO)C2)ccc1-c1ccc2[nH]nc(N)c2n1` (stereo not shown) [Example 83, 2-(1-((4-(3-amino-1H-pyrazolo[4,3-b]pyridin-5-yl)-3-methylphenyl)sulfonyl)pyrrolidin-3-yl)ethanol]: under setting [1], the half-maximal effective concentration (EC50) worked out at 5.33 µM.

In the case of `Cc1cc(S(=O)(=O)N[C@H]2C[C@H](O)C2)ccc1-c1ccc2[nH]nc(N)c2n1` [Example 77, 4-(3-amino-1H-pyrazolo[4,3-b]pyridin-5-yl)-N-((1r,3r)-3-hydroxycyclobutyl)-3-methylbenzenesulfonamide], the EC50 under setting [1] is 0.777 µM.

Turning to `Nc1n[nH]c2ccc(-c3ccc(S(=O)(=O)N[C@H]4C[C@@H](CO)C4)cc3Cl)nc12` [Example 85, 4-(3-amino-1H-pyrazolo[4,3-b]pyridin-5-yl)-3-chloro-N-((1s,3s)-3-(hydroxymethyl)cyclobutyl)benzenesulfonamide], the EC50 under setting [1] came to 1.75 µM.

For `Nc1n[nH]c2ccc(-c3ccc(NS(=O)(=O)C4CCCCC4)cc3Cl)nc12` [Example 15, N-(4-(3-amino-1H-pyrazolo[4,3-b]pyridin-5-yl)-3-chlorophenyl)cyclohexanesulfonamide], the EC50 under setting [1] is 0.874 µM.

Regarding `Nc1n[nH]c2ccc(-c3ccc(NS(=O)(=O)c4ccc(F)c(F)c4)cc3Cl)nc12` [Example 10, N-(4-(3-amino-1H-pyrazolo[4,3-b]pyridin-5-yl)-3-chlorophenyl)-3,4-difluorobenzenesulfonamide], the EC50 under setting [1] stood at 0.64 µM.

Turning to `Nc1n[nH]c2ccc(-c3ccc(NS(=O)(=O)c4cccc(F)c4)cc3Cl)nc12` [Example 41, N-(4-(3-amino-1H-pyrazolo[4,3-b]pyridin-5-yl)-3-chlorophenyl)-3-fluorobenzenesulfonamide], the EC50 under setting [1] came to 2.25 µM.

For `Cc1cc(NS(=O)(=O)c2cccc(F)c2)ccc1-c1ccc2[nH]nc(N)c2n1` [Example 33, N-(4-(3-amino-1H-pyrazolo[4,3-b]pyridin-5-yl)-3-methylphenyl)-3-fluorobenzenesulfonamide], the EC50 under setting [1] stood at 1.02 µM.

For the compound `Nc1n[nH]c2ccc(-c3ccc(NS(=O)(=O)c4cccc(C(F)(F)F)c4)cc3Cl)nc12` [Example 62, N-(4-(3-amino-1H-pyrazolo[4,3-b]pyridin-5-yl)-3-chlorophenyl)-3-(trifluoromethyl)benzenesulfonamide], under setting [1], the 50% effective concentration (EC50) came to 1.3 µM.

With `Nc1n[nH]c2ccc(-c3ccc(NS(=O)(=O)C4CCCCC4O)cc3Cl)nc12` (stereo not shown) [Example 17, N-(4-(3-amino-1H-pyrazolo[4,3-b]pyridin-5-yl)-3-chlorophenyl)-2-hydroxycyclohexane-1-sulfonamide], the half-maximal effective concentration (EC50) under setting [1] worked out at 1.84 µM.

For the compound `Nc1n[nH]c2ccc(-c3ccc(S(=O)(=O)N[C@@H]4CCC[C@H]4O)cc3Cl)nc12` [Example 29, 4-(3-amino-1H-pyrazolo[4,3-b]pyridin-5-yl)-3-chloro-N-((1R,2R)-2-hydroxycyclopentyl)benzenesulfonamide], the EC50 under setting [1] was 1.91 µM.

On to `Cc1cc(S(=O)(=O)NC2CCCC(O)C2)ccc1-c1ccc2[nH]nc(N)c2n1` (stereo not shown) [Example 65, 4-(3-amino-1H-pyrazolo[4,3-b]pyridin-5-yl)-N-(3-hydroxycyclohexyl)-3-methylbenzenesulfonamide], for which the EC50 under setting [1] turned out to be 0.122 µM.

Regarding `Nc1n[nH]c2ccc(-c3ccc(S(=O)(=O)Nc4ccccc4)cc3F)nc12` [Example 49, 4-(3-amino-1H-pyrazolo[4,3-b]pyridin-5-yl)-3-fluoro-N-phenylbenzenesulfonamide], the EC50 under setting [1] was 0.87 µM.

The values are drawn from patent US10766894B2, “Aza-indazole compounds for use in tendon and/or ligament injuries” (NOVARTIS AG, priority 2016, dated 2020).
